Data: patent US20250171420A1 (Monte Rosa Therapeutics, Inc., priority 2022, published 2025)
Like-named read-outs stand apart in the source and are kept apart here.

Legend:
CK1α = biological target: T1, CK1α (Homo sapiens, UniProt P48729); experiment: CK1α NanoBit Assay (HiBiT-tagged CSNK1A1, HEK293 clonal lines); assay type: cell-based; details: HEK293 HiBiT-CSNK1A1/LgBiT cells, 24 h incubation
T1 construct: HEK293 clonal lines with CRISPR KI HiBiT tag on CSNK1A1
How it was run: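 HEK293 clones carrying a CRISPR knock-in HiBiT tag on CSNK1A1 and stably expressing LgBiT are treated with compound for 24 hours at 37° C, 5% CO2, then read by luminescence. Response is normalized as 100*(S−N)/(P−N) against plate negative and positive controls, and DC50 values are derived.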

CRBN/DDB1 = CRBN/DDB1 (Homo sapiens, UniProt Q96SW2); experiment: HTRF binding assay (displacement of Cy5-thalidomide probe from CRBN/DDB1); details: CRBN/DDB1 2.5 nM, Cy5-Thalidomide 100 nM, 30 min; geometric mean; read-out: HTRF_Thali_Disp_DR_geo_IC50
How it was run: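 Compounds in a 10-point threefold dilution series were incubated 30 min at ambient temperature with 2.5 nM CRBN/DDB1, 100 nM Cy5-thalidomide probe and terbium anti-His donor (HEPES/NaCl/TCEP/EDTA/Tween20 buffer). IC50 came from 4-parameter fits of the 665/620 nm HTRF ratio; Ki used Cheng-Prusoff on geometric-mean IC50.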

SKCO1 cell line = experiment: Growth inhibition, CyQUANT Direct Cell Proliferation Assay, SKCO1; assay type: cell-based; details: Homo sapiens
Method: (§1) SKCO1, LS180, and LS174T cell lines were purchased from ATCC. CW2 cell line was purchased from Riken. GP2D cell line was purchased from Sigma/ECACC. All cell lines were cultured in manufacturer's recommended media at 37° C., 5% CO2. Briefly, cells were suspended in 200 μL of media and seeded at 300 to 1,800 cells per well in tissue culture treated 96-well plates with black walls and clear bottom. Plates were incubated overnight and initial (To) read was performed the following day using CyQUANT Direct Cell Proliferation Assay Kit (Thermo Fisher Scientific) according to manufacturer's protocol. All compounds were solubilized in DMSO and prepared at 3-fold serial dilution, using 9 points starting at 30 μM as highest concentration, administered to cells and incubated for 120 to 168 hours, at which point CyQUANT assay measurement was performed using Acumen Cellista instrument (Ex/Em 480/520 nm). Media-only wells were used as blank, and 0.3% DMSO was used as DMSO-treated cell control. Growth inhibition (percent response) was calculated using the following formula in Excel: “=if ([Compound treated Day N]>[Untreated Day 0, AVG], ([Compound treated Day N]−[Untreated Day 0, AVG])/([Untreated Day N]−[Untreated Day 0, AVG])*100, ([Compound Treated Day N]−[Untreated Day 0, AVG])/([Untreated Day 0, AVG])*100)”. GI50 is the response corresponding to the 50% of untreated control.
(§2) GI50 data are reported in Tables 4a, 4b, 4c, 4d, and 4e for compounds in Table 1. In Tables 4a, 4b, 4c, 4d, and 4e below, According to the code, A represents a GI50 value of ≤0.1 μM, B represents a GI50 value>0.1 μM and ≤1 μM, C represents an GI50 value>1 μM.

CW2 cell line = experiment: Growth inhibition, CyQUANT Direct Cell Proliferation Assay, CW2; assay type: cell-based; details: Homo sapiens
Method: as §1, §2

GP2D cell line = experiment: Growth inhibition, CyQUANT Direct Cell Proliferation Assay, GP2D; assay type: cell-based
Method: as §1, §2

LS180 cell line = experiment: Growth inhibition, CyQUANT Direct Cell Proliferation Assay, LS180; assay type: cell-based; details: Homo sapiens
Method: as §1, §2

LS174T cell line = experiment: Growth inhibition, CyQUANT Direct Cell Proliferation Assay, LS174T; assay type: cell-based; details: Homo sapiens
Method: as §1, §2

[1] = SK-CO-1, read-out: SKCO1 GI50 (μM)
[2] = LS180, read-out: LS180 GI50 (μM)
[3] = SK-CO-1, SKCO1, 120 to 168 hours, read-out: SKCO1 GI50
[4] = CW-2, CW2, 120 to 168 hours, read-out: CW2 GI50
[5] = GP2D, 120 to 168 hours, read-out: GP2D GI50
[6] = LS180, 120 to 168 hours, read-out: LS180 GI50
[7] = 120 to 168 hours, read-out: LS174T GI50

Chain of CRBN/DDB1 (Q96SW2 whole entry, species assumed): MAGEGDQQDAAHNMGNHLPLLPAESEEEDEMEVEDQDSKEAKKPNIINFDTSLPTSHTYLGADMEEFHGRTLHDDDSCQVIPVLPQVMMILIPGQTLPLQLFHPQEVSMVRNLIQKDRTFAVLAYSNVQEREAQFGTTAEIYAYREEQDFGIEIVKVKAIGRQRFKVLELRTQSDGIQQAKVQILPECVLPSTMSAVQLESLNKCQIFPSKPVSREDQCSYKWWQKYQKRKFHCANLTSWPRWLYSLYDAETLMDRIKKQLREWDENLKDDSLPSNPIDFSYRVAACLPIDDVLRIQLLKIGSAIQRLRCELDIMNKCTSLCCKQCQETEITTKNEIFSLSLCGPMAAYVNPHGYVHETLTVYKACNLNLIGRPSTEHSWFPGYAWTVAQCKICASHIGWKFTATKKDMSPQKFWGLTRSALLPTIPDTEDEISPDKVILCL
Chain of CRBN/DDB1 (Q16531 whole entry partner, species assumed): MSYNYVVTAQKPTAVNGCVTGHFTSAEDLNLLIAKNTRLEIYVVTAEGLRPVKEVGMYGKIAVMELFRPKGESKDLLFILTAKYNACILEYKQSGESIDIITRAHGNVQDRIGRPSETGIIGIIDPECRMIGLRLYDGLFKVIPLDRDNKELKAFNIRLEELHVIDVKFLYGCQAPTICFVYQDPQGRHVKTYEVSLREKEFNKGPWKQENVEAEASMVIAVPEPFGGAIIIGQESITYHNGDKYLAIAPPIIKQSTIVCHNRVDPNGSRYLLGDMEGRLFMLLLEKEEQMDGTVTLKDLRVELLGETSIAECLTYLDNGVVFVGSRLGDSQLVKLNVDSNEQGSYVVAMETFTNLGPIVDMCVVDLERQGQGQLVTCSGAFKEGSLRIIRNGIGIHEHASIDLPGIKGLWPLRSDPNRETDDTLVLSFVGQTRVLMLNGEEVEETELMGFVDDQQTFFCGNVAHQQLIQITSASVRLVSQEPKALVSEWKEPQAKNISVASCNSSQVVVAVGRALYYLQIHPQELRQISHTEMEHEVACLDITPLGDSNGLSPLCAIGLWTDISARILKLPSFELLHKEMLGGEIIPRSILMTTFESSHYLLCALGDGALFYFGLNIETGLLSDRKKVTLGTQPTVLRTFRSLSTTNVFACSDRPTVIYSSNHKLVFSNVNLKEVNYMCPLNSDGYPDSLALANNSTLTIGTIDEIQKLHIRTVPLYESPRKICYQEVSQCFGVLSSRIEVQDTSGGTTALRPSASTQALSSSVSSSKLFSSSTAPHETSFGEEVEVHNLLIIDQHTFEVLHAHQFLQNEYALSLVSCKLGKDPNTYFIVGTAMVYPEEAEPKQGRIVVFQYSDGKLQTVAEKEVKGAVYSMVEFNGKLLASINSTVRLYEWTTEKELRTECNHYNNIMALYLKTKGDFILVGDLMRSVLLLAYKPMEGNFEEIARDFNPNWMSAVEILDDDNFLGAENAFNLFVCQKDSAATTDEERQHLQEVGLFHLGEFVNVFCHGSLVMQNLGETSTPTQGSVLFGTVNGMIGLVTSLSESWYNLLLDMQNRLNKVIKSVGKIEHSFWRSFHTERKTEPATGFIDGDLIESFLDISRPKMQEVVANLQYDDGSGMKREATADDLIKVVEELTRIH
T1 sequence (P48729 whole entry): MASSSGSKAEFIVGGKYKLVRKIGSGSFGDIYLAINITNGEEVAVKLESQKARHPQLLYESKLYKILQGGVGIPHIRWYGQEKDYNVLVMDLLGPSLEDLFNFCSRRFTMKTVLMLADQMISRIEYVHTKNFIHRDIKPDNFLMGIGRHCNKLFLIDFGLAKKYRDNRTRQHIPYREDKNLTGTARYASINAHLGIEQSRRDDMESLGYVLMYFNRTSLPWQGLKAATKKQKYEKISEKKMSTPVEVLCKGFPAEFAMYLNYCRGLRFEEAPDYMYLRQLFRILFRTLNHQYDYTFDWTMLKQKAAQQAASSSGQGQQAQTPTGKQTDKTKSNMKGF
T1 sequence (Q96SW2 whole entry, further chain): as the sequence (Q96SW2 whole entry, species assumed) above
T1 sequence (Q16531 2-1140 partner limits assumed): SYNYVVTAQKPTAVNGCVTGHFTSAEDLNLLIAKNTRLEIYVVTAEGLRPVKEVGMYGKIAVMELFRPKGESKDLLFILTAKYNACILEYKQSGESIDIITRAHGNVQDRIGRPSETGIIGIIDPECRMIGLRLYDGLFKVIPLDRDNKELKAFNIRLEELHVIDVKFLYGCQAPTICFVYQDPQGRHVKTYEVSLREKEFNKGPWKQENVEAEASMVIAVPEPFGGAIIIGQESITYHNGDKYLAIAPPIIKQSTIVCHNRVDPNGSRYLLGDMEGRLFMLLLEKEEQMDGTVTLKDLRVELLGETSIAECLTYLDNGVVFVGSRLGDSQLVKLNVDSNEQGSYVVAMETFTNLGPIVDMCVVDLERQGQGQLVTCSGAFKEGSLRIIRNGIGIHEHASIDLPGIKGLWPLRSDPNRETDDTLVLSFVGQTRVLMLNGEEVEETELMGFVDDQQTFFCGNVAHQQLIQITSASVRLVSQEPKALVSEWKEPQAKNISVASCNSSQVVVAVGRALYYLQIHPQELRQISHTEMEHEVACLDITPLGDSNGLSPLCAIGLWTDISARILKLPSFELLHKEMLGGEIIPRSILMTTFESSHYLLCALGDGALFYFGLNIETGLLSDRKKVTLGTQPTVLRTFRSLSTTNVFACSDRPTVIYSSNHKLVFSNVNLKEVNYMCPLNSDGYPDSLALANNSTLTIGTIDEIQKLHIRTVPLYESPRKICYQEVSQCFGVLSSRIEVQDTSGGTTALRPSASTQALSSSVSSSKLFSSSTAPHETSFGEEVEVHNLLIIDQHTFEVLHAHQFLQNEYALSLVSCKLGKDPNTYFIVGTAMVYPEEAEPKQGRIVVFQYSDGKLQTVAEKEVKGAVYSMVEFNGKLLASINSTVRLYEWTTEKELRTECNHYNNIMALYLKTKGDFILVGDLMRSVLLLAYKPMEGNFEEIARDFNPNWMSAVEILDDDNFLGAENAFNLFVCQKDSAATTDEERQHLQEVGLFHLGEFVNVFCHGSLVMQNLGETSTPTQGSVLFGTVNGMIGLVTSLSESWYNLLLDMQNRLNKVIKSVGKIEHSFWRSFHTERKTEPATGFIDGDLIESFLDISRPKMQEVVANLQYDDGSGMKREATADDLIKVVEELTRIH

Compound | DC50 (CK1α) | IC50 (CRBN/DDB1) | GI50 (SKCO1 cell line; [1]) | GI50 (CW2 cell line; CW-2, read-out: CW2 GI50 (μM)) | GI50 (GP2D cell line; GP2d, read-out: GP2D GI50 (μM)) | GI50 (LS180 cell line; [2]) | GI50 (LS174T cell line; read-out: LS174T GI50 (μM)) | GI50 (SKCO1 cell line; [3]) | GI50 (CW2 cell line; [4]) | GI50 (GP2D cell line; [5]) | GI50 (LS180 cell line; [6]) | GI50 (LS174T cell line; [7])
N#Cc1ccc2c(c1)CCN2C(=O)Nc1ccc2c(c1)CN(C1CCC(=O)NC1=O)C2=O (stereo not shown) [Compound 142, 5-cyano-N-(2-(2,6-dioxopiperidin-3-yl)-1-oxoisoindolin-5-yl)indoline-1-carboxamide] | < 0.1 µM | 100 to 1000 nM | 0.1 to 1 µM | > 1 µM | 0.1 to 1 µM | 0.1 to 1 µM | 0.1 to 1 µM | – | – | – | – | –
COC[C@@H]1Cc2c(C3CC3)cccc2N1C(=O)Nc1ccc2c(c1)CN(C1CCC(=O)NC1=O)C2=O (stereo partly drawn) [Compound 339, (2S)-4-cyclopropyl-N-(2-(2,6-dioxopiperidin-3-yl)-1-oxoisoindolin-5-yl)-2-(methoxymethyl)indoline-1-carboxamide] | < 0.1 µM | 100 to 1000 nM | – | – | – | – | – | 0.1 to 1 µM | 0.1 to 1 µM | 0.1 to 1 µM | > 1 µM | 0.1 to 1 µM
COCc1cccc2c1CCN2C(=O)Nc1ccc2c(c1)CN(C1CCC(=O)NC1=O)C2=O (stereo not shown) [Compound 341] | < 0.1 µM | 100 to 1000 nM | – | – | – | – | – | < 0.1 µM | 0.1 to 1 µM | < 0.1 µM | 0.1 to 1 µM | 0.1 to 1 µM
O=C1CCC(N2Cc3cc(NC(=O)N4CCc5ccccc54)ccc3C2=O)C(=O)N1 (stereo not shown) [Compound 103, N-(2-(2,6-dioxopiperidin-3-yl)-1-oxoisoindolin-5-yl)indoline-1-carboxamide] | < 0.1 µM | 100 to 1000 nM | – | – | – | – | – | < 0.1 µM | 0.1 to 1 µM | < 0.1 µM | 0.1 to 1 µM | 0.1 to 1 µM
Cc1cccc2c1CCN2C(=O)Nc1ccc2c(c1)CN(C1CCC(=O)NC1=O)C2=O (stereo not shown) [Compound 198, N-(2-(2,6-dioxopiperidin-3-yl)-1-oxoisoindolin-5-yl)-4-methylindoline-1-carboxamide] | < 0.1 µM | 100 to 1000 nM | – | – | – | – | – | < 0.1 µM | < 0.1 µM | < 0.1 µM | 0.1 to 1 µM | 0.1 to 1 µM
CC1Cc2ccccc2CN1C(=O)Nc1ccc2c(c1)CN(C1CCC(=O)NC1=O)C2=O (stereo not shown) [Compound 205, N-(2-(2,6-dioxopiperidin-3-yl)-1-oxoisoindolin-5-yl)-3-methyl-3,4-dihydroisoquinoline-2(1H)-carboxamide] | < 0.1 µM | 100 to 1000 nM | < 0.1 µM | < 0.1 µM | < 0.1 µM | 0.1 to 1 µM | 0.1 to 1 µM | – | – | – | – | –
O=C1CCC(N2Cc3cc(NC(=O)N4CCc5c4cccc5-n4cccn4)ccc3C2=O)C(=O)N1 (stereo not shown) [Compound 340, N-(2-(2,6-dioxopiperidin-3-yl)-1-oxoisoindolin-5-yl)-4-(1H-pyrazol-1-yl)indoline-1-carboxamide] | < 0.1 µM | 100 to 1000 nM | – | – | – | – | – | < 0.1 µM | 0.1 to 1 µM | < 0.1 µM | 0.1 to 1 µM | < 0.1 µM
O=C1CCC(N2Cc3cc(NC(=O)N4CCc5ccc(F)cc54)ccc3C2=O)C(=O)N1 (stereo not shown) [Compound 186, N-(2-(2,6-dioxopiperidin-3-yl)-1-oxoisoindolin-5-yl)-6-fluoroindoline-1-carboxamide] | < 0.1 µM | 100 to 1000 nM | < 0.1 µM | < 0.1 µM | < 0.1 µM | < 0.1 µM | < 0.1 µM | – | – | – | – | –
O=C1CCC(N2Cc3cc(NC(=O)N4C[C@H](C5CC5)C[C@@H]4C4CC4)ccc3C2=O)C(=O)N1 (stereo partly shown) [Compound 256] | < 0.1 µM | 100 to 1000 nM | – | – | – | – | – | < 0.1 µM | < 0.1 µM | 0.1 to 1 µM | 0.1 to 1 µM | < 0.1 µM
C[C@@H]1Cc2ccccc2N1C(=O)Nc1cc2c(cc1F)C(=O)N(C1CCC(=O)NC1=O)C2 (stereo partly drawn) [Compound 293, (2R)—N-(2-(2,6-dioxopiperidin-3-yl)-6-fluoro-1-oxoisoindolin-5-yl)-2-methylindoline-1-carboxamide] | < 0.1 µM | 100 to 1000 nM | – | – | – | – | – | – | – | – | – | –
C[C@@H]1Cc2ccccc2N1C(=O)Nc1ccc2c(c1F)CN(C1CCC(=O)NC1=O)C2=O (stereo partly drawn) [Compound 289, (2R)—N-(2-(2,6-dioxopiperidin-3-yl)-4-fluoro-1-oxoisoindolin-5-yl)-2-methylindoline-1-carboxamide] | < 0.1 µM | 100 to 1000 nM | – | – | – | – | – | – | – | – | – | –
O=C1CCC(N2Cc3cc(NC(=O)N4CCc5cc(-n6cccn6)ccc54)ccc3C2=O)C(=O)N1 (stereo not shown) [Compound 355] | < 0.1 µM | < 100 nM | – | – | – | – | – | – | – | – | – | –
COC[C@@H]1Cc2cc(C(F)(F)F)ncc2N1C(=O)Nc1ccc2c(c1)CN(C1CCC(=O)NC1=O)C2=O (stereo partly drawn) [Compound 294, (2S)—N-(2-(2,6-dioxopiperidin-3-yl)-1-oxoisoindolin-5-yl)-2-(methoxymethyl)-5-(trifluoromethyl)-2,3-dihydro-1H-pyrrolo[2,3-c]pyridine-1-carboxamide] | < 0.1 µM | 100 to 1000 nM | – | – | – | – | – | – | – | – | – | –
C[C@@H]1Cc2ccc(F)cc2N1C(=O)Nc1ccc2c(c1)CN(C1CCC(=O)NC1=O)C2=O (stereo partly drawn) [Compound 356, (2R)—N-(2-(2,6-dioxopiperidin-3-yl)-1-oxoisoindolin-5-yl)-6-fluoro-2-methylindoline-1-carboxamide] | < 0.1 µM | 100 to 1000 nM | – | – | – | – | – | – | – | – | – | –
CC1CN(C(=O)Nc2ccc3c(c2)CN(C2CCC(=O)NC2=O)C3=O)Cc2ccccc21 (stereo not shown) [Compound 191, N-(2-(2,6-dioxopiperidin-3-yl)-1-oxoisoindolin-5-yl)-4-methyl-3,4-dihydroisoquinoline-2(1H)-carboxamide] | < 0.1 µM | 100 to 1000 nM | – | – | – | – | – | – | – | – | – | –
O=C1CCC(N2Cc3cc(NC(=O)N4CCc5cccc(C(F)(F)F)c54)ccc3C2=O)C(=O)N1 (stereo not shown) [Compound 117, N-(2-(2,6-dioxopiperidin-3-yl)-1-oxoisoindolin-5-yl)-7-(trifluoromethyl)indoline-1-carboxamide] | 0.1 to 1 µM | 100 to 1000 nM | – | – | – | – | – | – | – | – | – | –
C[C@@H]1Cc2c(F)cccc2N1C(=O)Nc1ccc2c(c1)CN(C1CCC(=O)NC1=O)C2=O (stereo partly drawn) [Compound 354, (2R)—N-(2-(2,6-dioxopiperidin-3-yl)-1-oxoisoindolin-5-yl)-4-fluoro-2-methylindoline-1-carboxamide] | < 0.1 µM | 100 to 1000 nM | – | – | – | – | – | – | – | – | – | –
